“Also recorded” adds a separate entry of the source.
Tests used:
C57BL/6J mice = assay: Morris water maze; type: in vivo, mouse
Description: Male C57BL/6J mice (n = 8/group) from Taconic, Lille Skensved, Denmark, 7–8 weeks of age at arrival, were used in experiments that were predominantly performed as described previously. Vehicle or ACD855 (3 mg/kg; formulated in 20% DMSO in 0.1 M sodium phosphate buffer pH 8.0) was administered daily for the first four days (Day 1–4) through subcutaneous (s.c.) injections (10 mL/kg body weight). During the behavioral training days (Day 5–10), ACD855 or vehicle was administered s.c. 60 min prior to training. Moreover, during the behavioral training days, scopolamine (0.3 mg/kg) or vehicle was administered s.c. 30 min prior to training.

TrkB = molecular target: T1, TrkB (Homo sapiens, UniProt Q16620); assay: TrkB PathHunter cell-based assay (U2OS-TrkB/p75)
T1 construct: host or cells: U2OS (human osteosarcoma), co-expressing p75 and SHC-1 fused to the enzyme acceptor
Description: U2OS cells were maintained subconfluent in EMEM supplemented with 10% FBS and penicillin/streptomycin/hygromycin and G418. One day prior to the experiment, 5000 cells of EMEM supplemented with 0.5% horse serum were seeded in each well of a 384-well white plate. The assay was performed as previously described. Briefly, the TrkA or TrkB cell-based PathHunter® assays use enzyme fragment complementation (EFC) technology for the complementation of two β-galactosidase (β-gal) fragments in order to study protein–protein interactions. Upon activation with ligand, TrkA or TrkB are phosphorylated on several tyrosine residues, including tyrosine 490, leading to an interaction with SHC-1. In the PathHunter® assays, the Trk-receptors are fused to an enzyme donor tag, and SHC-1 is fused to a larger part of β-gal called an enzyme acceptor. The interactions between the recombinant enzyme donor, i.e., the Trk-receptor, with an enzyme acceptor, i.e., SHC-1, leads to an active β-gal enzyme. The functional (complemented) β-gal will hydrolyze a substrate to generate a luminescence signal. The generated luminescence was read using an EnVision plate reader from PerkinElmer, Upplands Väsby, Sweden, or an ID5 plate reader from Molecular Devices, Berkshire, RG41 5TS UK. […] Min- and Max-control wells were included on each plate. A compound was considered a hit if the percent activation was more than 50% and if the value was two standard deviations higher than the mean value of all of the samples on the plate. The average activation of all of samples on 10 different 384-well plates was 31%. […] Due to the risk of adverse events with the systemic administration of TrkA agonists, the screen and the re-screen processes were designed to increase the likelihood of identifying the positive modulators of NGF-signaling rather than identifying TrkA agonists. Based on the results of the re-screen, in combination with the physical–chemical properties of the molecules, a collection of hits was used for the EC50 determinations.
Both Toltrazuril and Ponazuril are registered veterinary products prescribed for parasitic infections in animals. […] The cellular response to NGF or BDNF was measured using PathHunter® assays employing β-gal enzyme fragment complementation technology. The activation of Trk-receptors leads to an intracellular interaction between the Trk-receptor and SHC-1 and thereby to the complementation of β-gal, which will render in a functional enzyme. β-gal will hydrolyze a substrate to generate luminescence, which is proportional to the number of activated receptors. […]

TrkA = molecular target: T2, TrkA (Homo sapiens, UniProt P04629); assay: TrkA PathHunter cell-based assay (U2OS-TrkA/p75)
T2 construct: host or cells: U2OS (human osteosarcoma), co-expressing p75 and SHC-1 fused to the enzyme acceptor
Description: U2OS cells were maintained subconfluent in EMEM supplemented with 10% FBS and penicillin/streptomycin/hygromycin and G418. One day prior to the experiment, 5000 cells of EMEM supplemented with 0.5% horse serum were seeded in each well of a 384-well white plate. The assay was performed as previously described. Briefly, the TrkA or TrkB cell-based PathHunter® assays use enzyme fragment complementation (EFC) technology for the complementation of two β-galactosidase (β-gal) fragments in order to study protein–protein interactions. Upon activation with ligand, TrkA or TrkB are phosphorylated on several tyrosine residues, including tyrosine 490, leading to an interaction with SHC-1. In the PathHunter® assays, the Trk-receptors are fused to an enzyme donor tag, and SHC-1 is fused to a larger part of β-gal called an enzyme acceptor. The interactions between the recombinant enzyme donor, i.e., the Trk-receptor, with an enzyme acceptor, i.e., SHC-1, leads to an active β-gal enzyme. The functional (complemented) β-gal will hydrolyze a substrate to generate a luminescence signal. The generated luminescence was read using an EnVision plate reader from PerkinElmer, Upplands Väsby, Sweden, or an ID5 plate reader from Molecular Devices, Berkshire, RG41 5TS UK. […] Min- and Max-control wells were included on each plate.
Both Toltrazuril and Ponazuril are registered veterinary products prescribed for parasitic infections in animals. […] The activation of Trk-receptors leads to an intracellular interaction between the Trk-receptor and SHC-1 and thereby to the complementation of β-gal, which will render in a functional enzyme. β-gal will hydrolyze a substrate to generate luminescence, which is proportional to the number of activated receptors.

[1] = without ligand, 100% = 30 ng/mL ligand

T1 sequence (Q16620 32-822): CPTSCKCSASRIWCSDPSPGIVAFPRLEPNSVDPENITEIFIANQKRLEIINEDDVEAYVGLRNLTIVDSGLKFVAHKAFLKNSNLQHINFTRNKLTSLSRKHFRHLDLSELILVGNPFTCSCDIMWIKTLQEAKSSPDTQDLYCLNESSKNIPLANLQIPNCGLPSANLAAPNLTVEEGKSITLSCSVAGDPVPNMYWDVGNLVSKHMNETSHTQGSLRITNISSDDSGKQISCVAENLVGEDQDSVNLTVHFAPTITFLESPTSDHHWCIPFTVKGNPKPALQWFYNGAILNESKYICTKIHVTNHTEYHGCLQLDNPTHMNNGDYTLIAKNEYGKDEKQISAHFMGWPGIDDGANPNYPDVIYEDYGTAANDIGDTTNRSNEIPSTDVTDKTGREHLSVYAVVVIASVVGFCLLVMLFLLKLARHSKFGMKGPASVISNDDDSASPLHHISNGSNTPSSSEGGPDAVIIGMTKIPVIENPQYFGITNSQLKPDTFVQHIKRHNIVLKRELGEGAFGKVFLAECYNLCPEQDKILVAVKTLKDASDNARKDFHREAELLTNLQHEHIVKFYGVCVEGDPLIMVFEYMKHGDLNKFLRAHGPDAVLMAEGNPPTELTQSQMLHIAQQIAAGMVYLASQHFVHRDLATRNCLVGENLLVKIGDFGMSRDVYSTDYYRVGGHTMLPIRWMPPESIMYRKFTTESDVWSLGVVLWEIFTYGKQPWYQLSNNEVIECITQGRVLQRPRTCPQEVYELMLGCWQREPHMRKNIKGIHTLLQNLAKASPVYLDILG
T2 sequence (P04629 33-796): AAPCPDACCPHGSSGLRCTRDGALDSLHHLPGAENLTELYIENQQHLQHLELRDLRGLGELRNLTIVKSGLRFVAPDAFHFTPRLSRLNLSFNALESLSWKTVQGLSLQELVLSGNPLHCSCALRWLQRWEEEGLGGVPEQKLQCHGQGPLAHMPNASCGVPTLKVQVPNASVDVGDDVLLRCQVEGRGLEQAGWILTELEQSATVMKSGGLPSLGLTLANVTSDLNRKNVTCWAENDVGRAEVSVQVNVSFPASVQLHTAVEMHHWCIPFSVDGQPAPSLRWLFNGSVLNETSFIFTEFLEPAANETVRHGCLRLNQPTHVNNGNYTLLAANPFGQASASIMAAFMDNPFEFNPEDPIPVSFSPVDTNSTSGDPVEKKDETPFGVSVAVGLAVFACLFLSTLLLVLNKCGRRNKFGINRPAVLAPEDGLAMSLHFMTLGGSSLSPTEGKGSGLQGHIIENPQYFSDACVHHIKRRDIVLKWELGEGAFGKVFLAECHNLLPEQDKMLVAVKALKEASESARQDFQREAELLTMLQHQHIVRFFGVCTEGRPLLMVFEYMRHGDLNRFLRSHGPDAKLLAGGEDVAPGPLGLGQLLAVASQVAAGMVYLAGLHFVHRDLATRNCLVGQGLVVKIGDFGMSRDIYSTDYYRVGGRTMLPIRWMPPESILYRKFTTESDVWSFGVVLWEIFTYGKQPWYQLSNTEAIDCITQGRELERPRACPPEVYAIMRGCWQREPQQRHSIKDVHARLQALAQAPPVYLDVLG

Cc1cc(-n2c(=O)[nH]c(=O)n(C)c2=O)ccc1Oc1ccc(S(=O)(=O)C(F)(F)F)cc1 [ACD855, Toltrazuril-sulfone]
effect of compound by itself on cognitive function (swim latency, Day 1) (C57BL/6J mice; 3 mg/kg s.c., no scopolamine, vs vehicle): seemed to improve cognitive function compared to vehicle; also recorded: improved cognitive function compared to vehicle | effect on scopolamine-induced cognitive impairment (swim latency) (C57BL/6J mice; 3 mg/kg s.c., scopolamine 0.3 mg/kg): significantly blocked; also recorded: completely blocked | retention test (probe trial) (C57BL/6J mice; control vs treated groups): only an improvement trend | swim speed (C57BL/6J mice; control vs treated groups): no significant differences | EC50 (TrkB; PathHunter cell-based assay): 3200 nM | TrkB Effect (efficacy) (TrkB; PathHunter cell-based assay): 319% | activation of TrkB-receptor by compound itself (TrkB; [1]): 45% | modulation of TrkA activity over NGF dose-response curve (TrkA; 0.3, 1 and 3 µM compound with a wide range of NGF concentrations): positively modulated TrkA activity | EC50 (TrkA; PathHunter cell-based assay): 1900 nM | TrkA Effect (efficacy) (TrkA; PathHunter cell-based assay): 144% | activation of TrkA-receptor by compound itself (TrkA; [1]): 45%

Reference: PMC8391421, “Identification of Novel Positive Allosteric Modulators of Neurotrophin Receptors for the Treatment of Cognitive Dysfunction” (Cells, 2021)
